Where “and” joins values, the source holds several entries; their conditions need not be identical. Equal entries are not always repeated. After the bases stand the sugars from the 5' end (letter, count) and the backbone: PS all phosphorothioate, else s phosphorothioate and o phosphodiester by linkage. Methylation of C is not given here. e = 2'-O-(2-methoxyethyl) (MOE); l = locked nucleic acid (LNA); k = constrained ethyl (cEt); d = 2'-deoxy (DNA)
Experiments:
ANGPTL2 = conditions: ASO
KRAS = conditions: ASO

CTGGAAAGAAGGGGCTGTG (sugars l1 d16 l2, PS)
target mRNA inhibition (ANGPTL2; 5 µM): 38.8% | target mRNA inhibition (ANGPTL2; 25 µM): 30.4%

CCAGAGCTAATCAGTGG (sugars l2 d13 l2, PS)
target mRNA inhibition (ANGPTL2; 5 µM): 39.4% | target mRNA inhibition (ANGPTL2; 25 µM): 48.8%

TTGGTTCGTCAGCCAG (sugars l1 d12 l3, PS)
target mRNA inhibition (ANGPTL2; 5 µM): 49.1% | target mRNA inhibition (ANGPTL2; 25 µM): 65%

ACCCTCCATCCTTCACC (sugars l4 d11 l2, PS)
target mRNA inhibition (ANGPTL2; 5 µM): 36.5% | target mRNA inhibition (ANGPTL2; 25 µM): 52.7%

CTAGACATACCATCTA (sugars l3 d10 l3, PS)
target mRNA inhibition (ANGPTL2; 5 µM): 34.9% | target mRNA inhibition (ANGPTL2; 25 µM): 40%

GTTGATGATGCGGTTGTAG (sugars l1 d16 l2, PS)
target mRNA inhibition (ANGPTL2; 5 µM): 22.9% | target mRNA inhibition (ANGPTL2; 25 µM): 34%

ATTTTGAGATTCCCCCAAA (sugars l1 d14 l4, PS)
target mRNA inhibition (ANGPTL2; 5 µM): 7.37% | target mRNA inhibition (ANGPTL2; 25 µM): -8.2%

GAAGAAAAGAGCACATGG (sugars l3 d11 l4, PS)
target mRNA inhibition (ANGPTL2; 5 µM): 33.2% | target mRNA inhibition (ANGPTL2; 25 µM): 9.98%

CCAACACTAACTCGGC (sugars l2 d12 l2, PS)
target mRNA inhibition (ANGPTL2; 5 µM): 36% | target mRNA inhibition (ANGPTL2; 25 µM): 54.3%

ATAGTGGGCAGAGGGGG (sugars l1 d14 l2, PS)
target mRNA inhibition (ANGPTL2; 5 µM): 21.6% | target mRNA inhibition (ANGPTL2; 25 µM): 13.4%

CCATTTTGAGATTCCCCCAA (sugars l3 d15 l2, PS)
target mRNA inhibition (ANGPTL2; 5 µM): 44.4% | target mRNA inhibition (ANGPTL2; 25 µM): 43.9%

TTAGTGGAAGGTGTTGG (sugars l3 d12 l2, PS)
target mRNA inhibition (ANGPTL2; 5 µM): 51.1% | target mRNA inhibition (ANGPTL2; 25 µM): 62.8%

ACCCTCCATCCTTCACC (sugars l2 d13 l2, PS)
target mRNA inhibition (ANGPTL2; 5 µM): 34.7% | target mRNA inhibition (ANGPTL2; 25 µM): 54.5%

GTTCGTCAGCCAGTAA (sugars l2 d11 l3, PS)
target mRNA inhibition (ANGPTL2; 5 µM): 46.5% | target mRNA inhibition (ANGPTL2; 25 µM): 75.5%

AAGAGAGAAGGCAGTGAGAG (sugars l2 d16 l2, PS)
target mRNA inhibition (ANGPTL2; 5 µM): 24.8% | target mRNA inhibition (ANGPTL2; 25 µM): 10.9%

GCTCTCATAATCCTAC (sugars l2 d11 l3, PS)
target mRNA inhibition (ANGPTL2; 5 µM): 59.2% | target mRNA inhibition (ANGPTL2; 25 µM): 65.4%

AAGGTAAAAGCTAACA (sugars k3 d10 k3, PS)
target mRNA inhibition (KRAS; A431, 2 µM): 21%

ATGGTGTAACATAGGT (sugars kkdddddddddkekek, PS)
target mRNA inhibition (KRAS; A431, 2 µM): 53% | target mRNA inhibition (KRAS; NCI-H460, 0.037 µM): 52.7%

AATAGTTTCCATTGCC (sugars k3 d10 k3, PS)
target mRNA inhibition (KRAS; A431, 2 µM): 56%

AAAAGCTATTAGGAGT (sugars k3 d10 k3, PS)
target mRNA inhibition (KRAS; A431, 2 µM): 25%

TGTTTATGCAATGTTA (sugars k3 d10 k3, PS)
target mRNA inhibition (KRAS; A431, 0.125 µM): 49% and 53% | target mRNA inhibition (KRAS; A431, 0.185 µM): 21% and 0% | target mRNA inhibition (KRAS; A431, 0.556 µM): 40% and 27% | target mRNA inhibition (KRAS; A431, 1.667 µM): 53% | target mRNA inhibition (KRAS; A431, 5 µM): 79% and 68% | target mRNA inhibition (KRAS; NCI-H460, 0.037 µM): 41%

ATATCCACAGCAGCAG (sugars k3 d10 k3, PS)
target mRNA inhibition (KRAS; A431, 2 µM): 39%

CTTGAAAAGTGTTTAT (sugars k3 d10 k3, PS)
target mRNA inhibition (KRAS; A431, 2 µM): 0%

TGAAAAGTGTTTATGC (sugars k3 d10 k3, PS)
target mRNA inhibition (KRAS; A431, 2 µM): 40%

GTGTTTATGCAATGTT (sugars kkkddddddddkdkdk, PS)
target mRNA inhibition (KRAS; A431, 0.125 µM): 70% and 58% | target mRNA inhibition (KRAS; A431, 0.185 µM): 27% | target mRNA inhibition (KRAS; A431, 0.556 µM): 47% | target mRNA inhibition (KRAS; A431, 1.667 µM): 73% | target mRNA inhibition (KRAS; A431, 5 µM): 81%

TCCAGTGATACTTTCA (sugars kkddddddddddkeke, PS)
target mRNA inhibition (KRAS; A431, 2 µM): 39%

AGCTTGATCGAAGAGT (sugars k3 d10 k3, PS)
target mRNA inhibition (KRAS; A431, 5 µM): 50%

CAAGATGACACTAATA (sugars k3 d10 k3, PS)
target mRNA inhibition (KRAS; A431, 2 µM): 18%

ACCAGTGTTAAGAGAA (sugars kkddddddddkekekk, PS)
target mRNA inhibition (KRAS; A431, 2 µM): 52%

CTTGATTTGTCAGCAG (sugars kkkddddddddkdkdk, PS)
target mRNA inhibition (KRAS; A431, 2 µM): 33%

TCATTGTTTAAAAAAA (sugars k3 d10 k3, PS)
target mRNA inhibition (KRAS; A431, 2 µM): 0%

ATGGTGTAACATAGGT (sugars kkkddddddddkdkdk, PS)
target mRNA inhibition (KRAS; A431, 2 µM): 36%

GTGCAATGGTGACAAC (sugars k3 d10 k3, PS)
target mRNA inhibition (KRAS; A431, 2 µM): 38%

ATCCATTTATGTGACT (sugars k3 d10 k3, PS)
target mRNA inhibition (KRAS; A431, 2 µM): 38%

CACTTCATTGTTTAAA (sugars k3 d10 k3, PS)
target mRNA inhibition (KRAS; A431, 2 µM): 12%

TCTTTTAATGTCACAA (sugars k3 d10 k3, PS)
target mRNA inhibition (KRAS; A431, 2 µM): 46%

GCTCTTGATTTGTCAG (sugars k3 d10 k3, PS)
target mRNA inhibition (KRAS; A431, 2 µM): 23%

TTGTATCTTGTTGAGC (sugars k3 d10 k3, PS)
target mRNA inhibition (KRAS; A431, 2 µM): 50%

GATGGTGTAACATAGG (sugars k3 d10 k3, PS)
target mRNA inhibition (KRAS; A431, 0.185 µM): 8% | target mRNA inhibition (KRAS; A431, 0.556 µM): 30% | target mRNA inhibition (KRAS; A431, 1.667 µM): 56% | target mRNA inhibition (KRAS; A431, 2 µM): 60% | target mRNA inhibition (KRAS; A431, 5 µM): 68%

ACCATTCAAAGTTCAC (sugars k3 d9 k3 e1, PS)
target mRNA inhibition (KRAS; A431, 2 µM): 42%

ACGAGAATGGATATTC (sugars k3 d10 k3, PS)
target mRNA inhibition (KRAS; A431, 2 µM): 29%
